Data from patent publication US9605005B2, “Alkynyl alcohols and methods of use” (Genentech, Inc., priority 2013, dated 2017).

Biological target: nuclear factor-kappa B (NF-kB)-inducing kinase (NIK) (Homo sapiens (Human), UniProt Q99558)
Experiment: NIK enzyme inhibition assay (Transcreener ADP, NIK ADP-FP)
Assay type: biochemical
Settings: purified NIK 0.5 nM, 10 μM ATP, fluorescence polarization; read-out: NIK ADP-FP (Ki μM)

Sequence of nuclear factor-kappa B (NF-kB)-inducing kinase (NIK) (Q99558 whole entry): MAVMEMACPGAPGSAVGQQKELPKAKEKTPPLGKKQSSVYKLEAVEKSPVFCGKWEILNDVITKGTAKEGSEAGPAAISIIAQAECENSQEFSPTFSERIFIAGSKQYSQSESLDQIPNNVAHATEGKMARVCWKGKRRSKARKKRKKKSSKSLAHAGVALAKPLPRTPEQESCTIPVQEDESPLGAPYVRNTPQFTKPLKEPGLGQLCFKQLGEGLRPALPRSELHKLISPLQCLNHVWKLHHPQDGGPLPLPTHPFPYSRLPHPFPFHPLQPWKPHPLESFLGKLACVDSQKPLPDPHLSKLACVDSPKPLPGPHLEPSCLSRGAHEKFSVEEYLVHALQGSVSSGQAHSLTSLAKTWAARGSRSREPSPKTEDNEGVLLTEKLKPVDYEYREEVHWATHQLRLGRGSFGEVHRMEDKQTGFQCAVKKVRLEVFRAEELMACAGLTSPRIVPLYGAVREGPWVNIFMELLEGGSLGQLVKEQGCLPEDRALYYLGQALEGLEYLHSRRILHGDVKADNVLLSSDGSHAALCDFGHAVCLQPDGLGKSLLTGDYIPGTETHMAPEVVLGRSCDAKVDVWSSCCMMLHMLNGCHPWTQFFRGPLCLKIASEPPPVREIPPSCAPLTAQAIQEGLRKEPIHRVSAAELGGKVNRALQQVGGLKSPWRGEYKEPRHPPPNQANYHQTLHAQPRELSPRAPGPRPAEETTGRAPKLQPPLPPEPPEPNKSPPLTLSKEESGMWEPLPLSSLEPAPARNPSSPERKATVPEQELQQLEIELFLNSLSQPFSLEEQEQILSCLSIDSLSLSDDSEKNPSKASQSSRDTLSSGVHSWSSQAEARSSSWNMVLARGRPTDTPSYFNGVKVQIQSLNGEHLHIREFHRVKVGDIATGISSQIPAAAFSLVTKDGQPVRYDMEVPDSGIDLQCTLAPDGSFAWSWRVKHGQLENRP

Row | Ki [nM] | SMILES
1 | 2.33 | C[C@H](O)c1ccc2c(c1)c(C(N)=O)nn2-c1cccc(C#C[C@]2(O)CCN(C)C2=O)c1 [Compound 45, 5-[(1S)-1-hydroxyethyl]-1-[3-[2-[(3R)-3-hydroxy-1-meth-yl-2-oxo-pyrrolidin-3-yl]ethynyl]phenyl]indazole-3-carboxamide]
2 | 22.6 | CN1CC[C@@](O)(C#Cc2cccc(-n3nc(C(N)=O)c4c3C[C@@]3(C)C(C4)C3(F)F)c2)C1=O (stereo partly drawn) [Compound 47, (5aS)-5,5-difluoro-1-[3-[2-[(3R)-3-hydroxy-1-methyl-2-oxo-pyrrolidin-3-yl]ethyn-yl]phenyl]-5a-methyl-4a,6-dihydro-4H-cyclopropa[f] indazole-3-carboxamide]
3 | 64.7 | CN1CC[C@@](O)(C#Cc2cccc(-n3nc(C(N)=O)c4cc(CN5CCCC5)ccc43)c2)C1=O [Compound 48, 1-[3-[2-[(3R)-3-hydroxy-1-methyl-2-oxo-pyrrolidin-3-yl]ethynyl]phenyl]-5-(pyrro-lidine-1-ylmethyl)indazole-3-carboxamide]
4 | 170 | CN1CC[C@@](O)(C#Cc2cccc(-n3nc(C(N)=O)c4c3C[C@]3(C)C(C4)C3(F)F)c2)C1=O (stereo partly drawn) [Compound 50, (5aR)-5,5-difluoro-1-[3-[2-[(3R)-3-hydroxy-1-methyl-2-oxo-pyrrolidin-3-yl]ethyn-yl]phenyl]-5a-methyl-4a,6-dihydro-4H-cyclopropa[f]inda-zole-3-carboxamide]
5 | 18.7 | CN1CC[C@@](O)(C#Cc2ccnc(-n3nc(C(N)=O)c4c3C3CC(C4)C3)c2)C1=O [Compound 58, (R)-1-(4-((3-hydroxy-1-meth-yl-2-oxopyrrolidin-3-yl)eth-ynyl)pyridin-2-yl)-4,5,6,7-tetrahydro-1H-5,7-methano-indazole-3-carboxamide]
6 | 7.2 | CN1CC[C@@](O)(C#Cc2ccnc(-n3nc(C(N)=O)c4c3CC3CC4C3)c2)C1=O [Compound 59, (R)-1-(4-((3-hydroxy-1-meth-yl-2-oxopyrrolidin-3-yl)eth-ynyl)pyridin-2-yl)-4,5,6,7-tetrahydro-1H-4,6-methano-indazole-3-carboxamide]
7 | 4.46 | CN1CC[C@@](O)(C#Cc2ccnc(-n3nc(C(N)=O)c4c3C[C@H](O)CC4)c2)C1=O [Compound 61, (6R)-6-hydroxy-1-[4-[2-[(3R)-3-hydroxy-1-methyl-2-oxo-pyrrolidin-3-yl]ethynyl]-2-pyridyl]-4,5,6,7-tetrahydro-indazole-3-carboxamide]
8 | 5.47 | CN1CC[C@@](O)(C#Cc2ccnc(-n3nc(C(N)=O)c4c3C[C@@H](O)CC4)c2)C1=O [Compound 62, (6S)-6-hydroxy-1-[4-[2-[(3R)-3-hydroxy-1-methyl-2-oxo-pyrrolidin-3-yl]ethynyl]-2-pyridyl]-4,5,6,7-tetrahydro-indazole-3-carboxamide]
9 | 237 | CN1CC[C@@](O)(C#Cc2cccc(-n3nc(C(N)=O)c4c3CS(=O)(=O)CC4)c2)C1=O [Compound 68, 1-[3-[2-[(3R)-3-hydroxy-1-methyl-2-oxo-pyrrolidin-3-yl]ethynyl]phenyl]-6,6-dioxo-5,7-dihydro-4H-thiopyra-no[3,4-c]pyrazole-3-carbox-amide]
10 | 10.8 | Cc1cc(C(N)=O)nn1-c1cc(C#C[C@]2(O)CCN(C)C2=O)ccn1 [Compound 79, 1-[4-[2-[(3R)-3-hydroxy-1-methyl-2-oxo-pyrrolidin-3-yl]ethynyl]-2-pyridyl]-5-meth-yl-pyrazole-3-carboxamide]
11 | 84.5 | Cc1cc([C@](C)(O)C#Cc2ccnc(-n3nc(C(N)=O)cc3C)c2)no1 [Compound 80, 1-[4-[(3R)-3-hydroxy-3-(5-methylisoxazol-3-yl)but-1-ynyl]-2-pyridyl]-5-methyl-pyrazole-3-carboxamide]
12 | 99.1 | Cc1cc([C@](C)(O)C#Cc2ccnc(-n3nc(C(N)=O)c(Cl)c3C)c2)no1 [Compound 82, 4-chloro-1-[4-[(3R)-3-hydroxy-3-(5-methylisoxazol-3-yl)but-1-ynyl]-2-pyridyl]-5-methyl-pyrazole-3-carboxamide]
13 | 33.9 | CN1CC[C@@](O)(C#Cc2cccc(-c3nc(C(N)=O)c4n3CCCC4)c2)C1=O [Compound 84, 3-[3-[2-[(3R)-3-hydroxy-1-methyl-2-oxo-pyrrolidin-3-yl]ethynyl]phenyl]-5,6,7,8-tetra-hydroimidazo[1,5-a]pyri-dine-1-carboxamide]
14 | 20.4 | CN1CC[C@@](O)(C#Cc2cccc(-c3nc(C(N)=O)n4c3NCC4)c2)C1=O [Compound 87, 7-[3-[2-[(3R)-3-hydroxy-1-methyl-2-oxo-pyrrolidin-3-yl]ethynyl]phenyl]-2,3-dihy-dro-1H-imidazo[1,5-a]imida-zole-5-carboxamide]
15 | 0.05 | Cc1cn(-c2ccc3c(c2)c(C(N)=O)nn3-c2cccc(C#C[C@]3(O)CCN(C)C3=O)c2)cn1 [Compound 106, 1-[3-[2-[(3R)-3-hydroxy-1-methyl-2-oxo-pyrrolidin-3-yl]ethynyl]phenyl]-5-(4-meth-ylimidazol-1-yl)indazole-3-carboxamide]
16 | 1.82 | CC(=O)N1CC(c2cnc3c(c2)c(C(N)=O)nn3-c2cccc(C#C[C@]3(O)CCN(C)C3=O)c2)C1 [Compound 107, 5-(1-acetylazetidin-3-yl)-1-[3-[2-[(3R)-3-hydroxy-1-meth-yl-2-oxo-pyrrolidin-3-yl]ethynyl]phenyl]pyrazolo[3,4-b]pyridine-3-carboxamide]

Row | Ki [nM] | SMILES
17 | 0.24 | CN1CC[C@@](O)(C#Cc2cccc(-n3nc(C(N)=O)c4[nH]c(=O)ccc43)c2)C1=O [Compound 108, 1-[3-[2-[(3R)-3-hydroxy-1-methyl-2-oxo-pyrrolidin-3-yl]ethynyl]phenyl]-5-oxo-4H-pyrazolo[4,3-b]pyridine-3-carboxamide]
18 | 0.08 | CNC(=O)c1ccc2c(c1)c(C(N)=O)nn2-c1cccc(C#C[C@]2(O)CCN(C)C2=O)c1 [Compound 112, 1-[3-[2-[(3R)-3-hydroxy-1-methyl-2-oxo-pyrrolidin-3-yl]ethynyl]phenyl]-N5-meth-yl-indazole-3,5-dicarbox-amide]
19 | 86.1 | NC(=O)c1nn(-c2cccc(C#C[C@@]3(O)CCCC3=O)c2)c2ccccc12 [Compound 115, 1-[3-[2-[(1S)-1-hydroxy-2-oxo-cyclopentyl]ethynyl]phe-nyl]indazole-3-carboxamide]
20 | 0.63 | NC(=O)c1nn(-c2cccc(C#C[C@]3(O)CCCC3=O)c2)c2ccccc12 [Compound 116, 1-[3-[2-[(1R)-1-hydroxy-2-oxo-cyclopentyl]ethynyl]phe-nyl]indazole-3-carboxamide]
21 | 16.6 | C[C@](O)(C#Cc1cccc(-n2nc(C(N)=O)c3ccccc32)c1)c1c[nH]nn1 [Compound 118, 1-[3-[(3S)-3-hydroxy-3-(1H-triazol-4-yl)but-1-ynyl]phenyl]indazole-3-carboxamide]
22 | 18 | CN1CC[C@@](O)(C#Cc2cccc(-n3nc(C(N)=O)c4c3CCN([S@@+](C)[O-])C4)c2)C1=O [Compound 123, 1-[3-[2-[(3R)-3-hydroxy-1-methyl-2-oxo-pyrrolidin-3-yl]ethynyl]phenyl]-5-[(R)-methylsulfinyl]-6,7-dihydro-4H-pyrazolo[4,3-c]pyridine-3-carboxamide]
23 | 46.4 | CN1CC[C@@](O)(C#Cc2cccc(-n3nc(C(N)=O)c4c3CCN([S@+](C)[O-])C4)c2)C1=O [Compound 124, 1-[3-[2-[(3R)-3-hydroxy-1-methyl-2-oxo-pyrrolidin-3-yl]ethynyl]phenyl]-5-[(S)-methylsulfinyl]-6,7-dihydro-4H-pyrazolo[4,3-c]pyridine-3-carboxamide]
24 | 19.6 | CN1C[C@H](O)[C@@](O)(C#Cc2cccc(-n3nc(C(N)=O)c4ccccc43)c2)C1=O [Compound 125, 1-[3-[2-[(3S,4S)-3,4-dihydroxy-1-methyl-2-oxo-pyrroli-din-3-yl]ethynyl]phenyl]in-dazole-3-carboxamide]
25 | 591 | CN1C[C@@H](O)[C@@](O)(C#Cc2cccc(-n3nc(C(N)=O)c4ccccc43)c2)C1=O [Compound 126, 1-[3-[2-[(3S,4R)-3,4-dihydroxy-1-methyl-2-oxo-pyrroli-din-3-yl]ethynyl]phenyl]inda-zole-3-carboxamide]
26 | 10.2 | CN1C[C@@H](O)[C@](O)(C#Cc2cccc(-n3nc(C(N)=O)c4ccccc43)c2)C1=O [Compound 127, 1-[3-[2-[(3R,4R)-3,4-dihydroxy-1-methyl-2-oxo-pyrroli-din-3-yl]ethynyl]phenyl]inda-zole-3-carboxamide]
27 | 1250 | CN1C[C@H](O)[C@](O)(C#Cc2cccc(-n3nc(C(N)=O)c4ccccc43)c2)C1=O [Compound 128, 1-[3-[2-[(3R,4S)-3,4-dihydroxy-1-methyl-2-oxo-pyrroli-din-3-yl]ethynyl]phenyl]inda-zole-3-carboxamide]
28 | 1.31 | CN1CC[C@@](O)(C#Cc2cccc(-n3nc(C(N)=O)c4cnc(C#N)cc43)c2)C1=O [Compound 133, 6-cyano-1-[3-[2-[(3R)-3-hy-droxy-1-methyl-2-oxo-pyrroli-din-3-yl]ethynyl]phenyl] pyrazolo[4,3-c]pyridine-3-carboxamide]
29 | 1250 | N#Cc1cc2c(cn1)c(C(N)=O)nn2-c1cccc(C#C[C@]2(O)CCc3cccnc32)c1 [Compound 134, 6-cyano-1-[3-[2-[(7R)-7-hy-droxy-5,6-dihydrocyclopen-ta[b]pyridin-7-yl]ethynyl]phe-nyl]pyrazolo[4,3-c]pyridine-3-carboxamide]
30 | 0.19 | CN1CC[C@@](O)(C#Cc2cccc(-n3nc(C(N)=O)c4cnc(N5CC[C@@H](O)C5)cc43)c2)C1=O [Compound 138, 1-[3-[2-[(3R)-3-hydroxy-1-methyl-2-oxo-pyrrolidin-3-yl]ethynyl]phenyl]-6-[(3R)-3-hydroxypyrrolidin-1-yl]pyra-zolo[4,3-c]pyridine-3-carbox-amide]
31 | 0.39 | CN1CC[C@@](O)(C#Cc2cccc(-n3nc(C(N)=O)c4cnc(N5CC[C@H](O)C5)cc43)c2)C1=O [Compound 139, 1-[3-[2-[(3R)-3-hydroxy-1-methyl-2-oxo-pyrrolidin-3-yl]ethynyl]phenyl]-6-[(3S)-3-hydroxypyrrolidin-1-yl]pyra-zolo[4,3-c]pyridine-3-carbox-amide]
